This note sets out measurements from patent US12678437B2, “Use of Cyclo-HisPro (CHP) for lowering blood pressure” (NOVMETAPHARMA CO., LTD., priority 2020, dated 2026).

Experiment [1] has as its system AT1R (angiotensin II type I receptor). In words: AT1R protein expression (Western blot) in angiotensin II-treated HUVEC cells. The format is cell-based, Human. To be noted: HUVEC cells treated with Ang II and CHP, versus Ang II-treated control; corrected by β-actin. On the procedure:
(§1) Human umbilical vein endothelial cells (HUVEC, CRL-1730) were obtained from the American Type Culture Collection (ATCC), and EBM-2 basal medium and EGM-2 MV microvascular endothelial cell growth medium SingleQuots supplements were purchased from Lonza.
(§2) HUVEC cells were cultured in EBM-2 medium supplemented with EGM-2 MV SingleQuots supplements at 37° C. and 5% CO2 conditions. The medium was replaced every 2 to 3 days, and subculture was performed at 70 to 80% confluency.
(§3) HUVEC cells treated with angiotensin II and CHP were placed in 500 uL of RIPA buffer containing protease and phosphatase inhibitors, and then pulverized by using IKA's T10 homogenizer. […] The supernatant was collected and the protein concentration was measured by BCA quantitation, and the same amount of samples was separated by using the Bolt TM protein gel electrophoresis system, and then transferred to a nitrocellulose membrane. […] After washing 3 times for 10 minutes with TBST, the expression level was measured by reacting with ECL. The size of the appearing band was quantified by using the ImageJ program and corrected by dividing the size value of each band by the size value of the β-actin band. Statistical significance was analyzed by using Student's t-test statistical method with angiotensin II-treated control group (Ang II) (*p<0.05, […], ***p<0.0005).
A general note: Immunoblotting shows a protein as a band on a membrane.

A further experiment has as its system HMVEC-L cells. Put plainly: NO production (DAF-FM DA fluorescence) in HMVEC-L cells. Conditions: CHP 0, 1, 10, 100 and 500 μM, serum-free medium, 2 hours, versus control not treated with CHP. The experiment is classed as cell-based, Human. On the procedure:
Human lung microvascular cells (HMVEC-L, CC2527) were obtained from the American Type Culture Collection (ATCC), and EBM-2 basal medium and EGM-2 MV microvascular endothelial cell growth medium SingleQuots supplements were purchased from Lonza.
HUVEC-L cells were cultured in EBM-2 medium supplemented with EGM-2 MV SingleQuots at 37° C. and 5% CO2 conditions. The medium was replaced every 2 to 3 days, and subculture was performed at 70 to 80% confluency.
5×10^4 cells were placed in a black 96-well plate, incubated for 24 hours and treated with CHP at concentrations of 0, 1, 10, 100 and 500 μM in serum-free medium, respectively, and cultured at 37° C. and 5% CO2 conditions for 2 hours. DAF-FM DA (DAF-FM Diacetate; Invitrogen) at a concentration of 5 μM was added and further incubated for 30 minutes, and it was washed once with PBS and observed with a fluorescence microscope at FITC wavelength. Photographs were taken at the same exposure time, and the fluorescence intensity of each cell was measured by using the ImageJ tool. Statistical significance was analyzed by one-way ANOVA statistical method, and comparison with the control group which was not treated with CHP was analyzed by Dunnett's test (****p<0.0001).

Experiment [2] has as its system ⅚ nephrectomy rats. Put plainly: Therapeutic (post-treatment) blood pressure control in ⅚ nephrectomy rats. The format is in vivo. To be noted: ⅚ nephrectomy SD rats; oral 35 mg/kg every other day for 6 weeks from 2 weeks after nephrectomy; tail artery; SHAM 127.8, disease control (Nx) 196.2. On the procedure:
After pre-bringing 7-week-old SD rats purchased from Koatech Co., Ltd. for more than one week, the experimental group underwent surgery in two stages. After general anesthesia, incision was performed along the midline of the abdomen to separate the left kidney from the adrenal glands and surrounding tissues, and after holding the renal blood vessel with forceps to prevent bleeding, the upper ⅓ and lower ⅓ of the left kidney were removed, and after 1 week, general anesthesia was performed again, and the entire right kidney was removed to complete a ⅚ nephrectomy model.
In order to reduce the error range of blood pressure measurement, the experimental animals were calibrated in the holder of a blood pressure meter (BP-2000 blood pressure analysis system, rat platform 2-channel, Visitech Systems, Apex, NC, USA) and then acclimatized in a heating chamber at 37° C. for 30 minutes, and the systolic blood pressure was measured at least 5 times in the tail artery to obtain the average value. The significance of the experimental results was verified by performing t-test for each group of the disease control group (Nx), the normal control group and the Cyclo-HisPro administration group, and there was a statistically significant difference (**p<0.005, ***p<0.0005, ****p<0.00005).
2-1. Construction of ⅚ Nephrectomy Model and Administration of Cyclo-HisPro […]

The next experiment concerns eNOS gene. Put plainly: eNOS gene expression (real-time PCR) in SVEC4-10 cells. The format is cell-based, mouse. To be noted: CHP 0, 10, 100 and 250 μM, serum-free medium, 2 hours, corrected by β-actin. As for the experimental part:
SVEC4-10 (CRL-2181), which is a mouse endothelial cell line, was obtained from the American Type Culture Collection (ATCC), and RPMI-1640 medium and FBS were purchased from Hyclone.
SVEC4-10 cells were cultured at 37° C. and 5% CO2 conditions by using RPMI-1640 medium containing 10% FBS and 1% penicillin/streptomycin, and subculture was performed every 2 days.
SVEC4-10 cells were placed in a 6-well plate at 5×10^5 cells and cultured for 24 hours. CHP was treated at concentrations of 0, 10, 100 and 250 μM in serum-free medium, respectively, and then it was cultured at 37° C. and 5% CO2 conditions for 2 hours. Thereafter, the medium was removed, and it was washed once with cold PBS and then immediately dissolved using NucleoZOL.
For RNA extraction, RNA was extracted according to the manufacturer's total RNA isolation protocol by using NucleoZOL (MACHEREY-NAGEL), and 1 μg of RNA was subjected to reverse transcription polymerase chain reaction to synthesize cDNA by using iScript cDNA synthesis kit (Bio-Rad). The synthesized cDNA was analyzed by real-time PCR using iQ SYBR Green Supermix (Bio-Rad) by using the primer set of the eNOS gene.
Each gene expression value was corrected by dividing by the expression value of β-actin, which is a housekeeping gene. Statistical significance was analyzed by the Student's t-test statistical method (*p<0.05).
For orientation: Real-time PCR tracks product formation cycle by cycle.

For experiment [3], the system named is AT2R (angiotensin II type 2 receptor). Put plainly: AT2R protein expression (Western blot) in angiotensin II-treated HUVEC cells. To be noted: HUVEC cells treated with Ang II and CHP, versus Ang II-treated control; corrected by β-actin. The experiment is classed as cell-based, Human. On the procedure:
as §1, §2, §3

The test system of experiment [4] is ⅚ nephrectomy rats. In words: Prophylactic (pre-treatment) blood pressure control in ⅚ nephrectomy rats. Conditions: ⅚ nephrectomy SD rats; oral 35 mg/kg every other day for 8 weeks from 3 days before nephrectomy; tail artery; SHAM 127.8, disease control (Nx) 196.2. The format is in vivo. An excerpt:
1-1. Construction of ⅚ Nephrectomy Model and Cyclo-HisPro Administration
The kidney is involved in water and sodium metabolism and is closely associated with the renin-angiotensin system, and thus, kidney disease itself, that is, glomerulitis or renal failure, may cause hypertension and play an important role in the development of essential hypertension. Chronic renal failure through nephrectomy in rats leads to continued progression of hypertension, uremia, proteinuria and glomerulosclerosis.
After pre-bringing 7-week-old SD rats purchased from Koatech Co., Ltd. for more than one week, the experimental group underwent surgery in two stages. […]
In order to reduce the error range of blood pressure measurement, the experimental animals were calibrated in the holder of a blood pressure meter (BP-2000 blood pressure analysis system, rat platform 2-channel, Visitech Systems, Apex, NC, USA) and then acclimatized in a heating chamber at 37° C. for 30 minutes, and the systolic blood pressure was measured at least 5 times in the tail artery to obtain the average value. […]

In a further experiment the test system is VE-cadherin. Put plainly: VE-cadherin protein expression (Western blot) in angiotensin II-treated HUVEC cells. To be noted: HUVEC cells treated with Ang II and CHP, versus Ang II-treated control; corrected by β-actin. The format is cell-based, Human. On the procedure: as §1, §2, §3

In the case of `O=C1N[C@@H](Cc2cnc[nH]2)C(=O)N2CCC[C@@H]12` [Cyclo-HisPro], the AT1R protein expression result in experiment [1] is listed as “statistically significantly decreased”. The “NO production (intensity of DAF-FM DA fluorescence)” value with HMVEC-L cells is “significantly increased”. In addition, the systolic blood pressure in the experiment with ⅚ nephrectomy rats [2] was 171.6 mmHg; with ⅚ nephrectomy rats [4], 156.7 mmHg. The “expression of the eNOS gene” value in the experiment with eNOS gene is given as “significantly increased”. Moreover, the AT2R protein expression entry in experiment [3] is recorded as “tended to increase”. In addition, the VE-cadherin protein expression entry with VE-cadherin is on record as “statistically significantly increased”.
